Data taken from patent US9539336B2, “Sialic acid derivatives” (priority 2012, dated 2017).

Columns and labels:
CD22 (Siglec-2) [1] = target: T1, CD22 (Siglec-2) (Homo sapiens, UniProt P20273); test: New assay: displacement of biotin conjugate 35 from sialidase-treated Daudi cells, measured by FACS; type: binding; parameters: endogenous in cells; host or cells: Daudi (human B cell lymphoma line); conditions: Table II, IC50 values converted into rIP, BPC NeuAc = 1, 2 μmolar substance 35
T1 sequence (P20273 20-847): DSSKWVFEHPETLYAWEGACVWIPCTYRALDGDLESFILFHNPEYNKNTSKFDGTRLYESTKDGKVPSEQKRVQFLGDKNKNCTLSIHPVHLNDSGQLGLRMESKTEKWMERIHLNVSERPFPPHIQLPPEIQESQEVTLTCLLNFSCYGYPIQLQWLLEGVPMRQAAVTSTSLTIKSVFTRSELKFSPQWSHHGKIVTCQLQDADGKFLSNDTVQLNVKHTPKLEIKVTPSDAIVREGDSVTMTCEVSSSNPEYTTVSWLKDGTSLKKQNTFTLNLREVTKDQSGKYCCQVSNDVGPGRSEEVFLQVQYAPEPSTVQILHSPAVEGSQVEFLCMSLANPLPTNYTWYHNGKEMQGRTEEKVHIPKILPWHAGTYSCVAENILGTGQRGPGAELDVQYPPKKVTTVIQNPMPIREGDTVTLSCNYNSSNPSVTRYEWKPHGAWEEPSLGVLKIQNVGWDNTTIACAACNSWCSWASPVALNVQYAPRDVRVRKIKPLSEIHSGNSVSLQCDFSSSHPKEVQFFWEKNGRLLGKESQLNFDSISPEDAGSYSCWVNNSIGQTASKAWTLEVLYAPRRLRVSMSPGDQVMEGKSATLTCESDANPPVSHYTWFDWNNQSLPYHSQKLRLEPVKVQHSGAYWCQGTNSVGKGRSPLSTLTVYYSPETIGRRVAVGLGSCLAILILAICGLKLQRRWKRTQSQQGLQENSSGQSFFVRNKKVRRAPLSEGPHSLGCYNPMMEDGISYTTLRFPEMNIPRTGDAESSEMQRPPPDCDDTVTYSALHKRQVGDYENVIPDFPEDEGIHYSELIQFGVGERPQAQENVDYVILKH
Procedure: In order to be able to determine the affinity of the novel derivatives to CD22, a new assay was developed. For this assay, compound 35 (conjugate of a sialic acid derivative of the formula (I) and biotin) was prepared.
To determine the affinity of the compound of the formula (I), approximately 2×10^8 cells of the human B cell lymphoma line “Daudi” were incubated with sialidase (A. ureafaciens) for 1 h at 37° C. Subsequently, the enzyme was blocked with 1.5 mM 2,3-dehydroNeu5Ac and the cells were washed twice with PBS. Batches of 1-2×10^6 cells were transferred to sample vials and incubated on ice for 15 min with serial concentrations (10-fold dilutions) of the substance to be measured (inhibitor) and then for 20 min with 2 μmolar substance 35. The reaction volume was 50 μl. After washing with PBS, the sample was incubated for 15 min with Streptavidin-PE in the dark, then washed and the amount of substance 35 bound via Streptavadin-PE was measured by FACS. For the determination of 0% displacement of substance 35, cells without inhibitor were measured. For the determination of 100% displacement, cells were measured without substance 35 and without inhibitor. 4 substances and one reference substance were measured per assay. The IC50 values determined in each assay were subsequently converted into rIP values. For this purpose, substance 46 served as reference. […]

CD22 (Siglec-2) [2] = target: T1, CD22 (Siglec-2); conditions: Table II; affinity to CD22, BPC NeuAc = 1; cited from earlier work

SMILES | rIP (New assay) (CD22 (Siglec-2) [1]) | rIP (Literature assay) (CD22 (Siglec-2) [2])
CO[C@]1(C(=O)[O-])C[C@H](O)[C@@H](NC(C)=O)[C@H]([C@H](O)[C@H](O)CNC(=O)c2ccc(-c3ccccc3)cc2)O1.[Na+] [BPC NeuAc] | 1 | 1
COC(=O)CCCCCO[C@@H]1O[C@H](CO)[C@@H](O[C@@H]2O[C@H](CO[C@]3(C(=O)[O-])C[C@H](O)[C@@H](NC(C)=O)[C@H]([C@H](O)[C@H](O)CNC(=O)c4ccc(-c5ccccc5)cc4)O3)[C@H](O)[C@H](O)[C@H]2O)[C@H](O)[C@H]1NC(C)=O.[Na+] [BPC NeuAc- LN] | – | 15.9
